ChEMBL document CHEMBL1152560, “Substituted 2-arylbenzothiazoles as kinase inhibitors: hit-to-lead optimization” (Bioorg Med Chem, 2009)

Tests used:
[1] = target: Casein kinase I isoform gamma-3 (Homo sapiens) (UniProt Q9Y6M4); assay: Residual activity of CK1gamma3 at 1 uM by microplate scintillation counting
[2] = target: Tyrosine-protein kinase HCK (Homo sapiens) (UniProt P08631); assay: Residual activity of HCK at 1 uM by microplate scintillation counting
[3] = target: Tyrosine-protein kinase Fyn (Homo sapiens) (UniProt P06241); assay: Residual activity of FYN at 0.1 uM by microplate scintillation counting
[4] = target: T1, Tyrosine-protein kinase Mer (Homo sapiens) (UniProt Q12866); assay: Residual activity of MERTK at 0.1 uM by microplate scintillation counting
T1 sequence (whole entry): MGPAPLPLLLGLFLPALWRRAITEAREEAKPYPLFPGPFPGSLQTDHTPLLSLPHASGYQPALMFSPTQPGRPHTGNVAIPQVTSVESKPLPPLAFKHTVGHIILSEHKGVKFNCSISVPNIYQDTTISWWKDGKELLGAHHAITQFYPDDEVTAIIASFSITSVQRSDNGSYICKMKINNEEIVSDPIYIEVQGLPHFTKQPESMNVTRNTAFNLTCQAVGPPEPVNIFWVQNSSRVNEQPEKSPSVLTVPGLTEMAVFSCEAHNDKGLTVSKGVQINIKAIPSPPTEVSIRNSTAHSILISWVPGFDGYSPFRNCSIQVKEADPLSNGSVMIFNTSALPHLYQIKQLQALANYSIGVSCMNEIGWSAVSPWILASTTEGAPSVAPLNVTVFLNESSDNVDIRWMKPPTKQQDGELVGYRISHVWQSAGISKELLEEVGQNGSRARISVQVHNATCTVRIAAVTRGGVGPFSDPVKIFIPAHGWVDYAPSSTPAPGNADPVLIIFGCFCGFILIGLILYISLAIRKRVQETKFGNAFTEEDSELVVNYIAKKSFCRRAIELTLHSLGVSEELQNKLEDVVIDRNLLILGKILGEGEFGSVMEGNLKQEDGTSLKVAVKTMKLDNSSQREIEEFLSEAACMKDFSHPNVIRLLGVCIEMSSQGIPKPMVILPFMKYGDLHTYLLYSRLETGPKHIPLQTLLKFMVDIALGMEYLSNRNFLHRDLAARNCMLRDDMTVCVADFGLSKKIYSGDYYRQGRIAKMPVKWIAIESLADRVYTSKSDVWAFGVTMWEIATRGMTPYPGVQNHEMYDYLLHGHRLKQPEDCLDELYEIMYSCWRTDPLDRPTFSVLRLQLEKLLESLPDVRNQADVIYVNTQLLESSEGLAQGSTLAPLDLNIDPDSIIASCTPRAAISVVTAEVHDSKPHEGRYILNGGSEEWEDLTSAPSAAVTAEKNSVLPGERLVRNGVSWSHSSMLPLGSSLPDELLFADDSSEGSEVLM

[5] = target: Casein kinase II subunit alpha' (Homo sapiens) (UniProt P19784); assay: Residual activity of CK2alpha2 at 10 uM by microplate scintillation counting
[6] = target: Death-associated protein kinase 1 (Homo sapiens) (UniProt P53355); assay: Residual activity of DAPK1 at 10 uM by microplate scintillation counting
[7] = target: Ephrin type-A receptor 7 (Homo sapiens) (UniProt Q15375); assay: Residual activity of EPHA7 at 10 uM by microplate scintillation counting
[8] = target: Insulin-like growth factor 1 receptor (Homo sapiens) (UniProt P08069); assay: Residual activity of IGF1R at 10 uM by microplate scintillation counting
[9] = target: Tyrosine-protein kinase Yes (Homo sapiens) (UniProt P07947); assay: Residual activity of YES at 0.1 uM by microplate scintillation counting
[10] = tested on: Tyrosine-protein kinase ABL1 (Homo sapiens), P00519 [T315I]; assay: Residual activity of ABL1 T315I mutant at 1 uM by microplate scintillation counting
[11] = target: 5'-AMP-activated protein kinase catalytic subunit alpha-1 (Homo sapiens) (UniProt Q13131); assay: Residual activity of AMPK-alpha1 fl at 0.1 uM by microplate scintillation counting
[12] = target: Serine/threonine-protein kinase Nek7 (Homo sapiens) (UniProt Q8TDX7); assay: Residual activity of NEK7 at 0.1 uM by microplate scintillation counting
[13] = target: T2, TGF-beta receptor type-1 (Homo sapiens) (UniProt P36897); assay: Residual activity of TGFB-R1 at 0.1 uM by microplate scintillation counting
T2 sequence (whole entry): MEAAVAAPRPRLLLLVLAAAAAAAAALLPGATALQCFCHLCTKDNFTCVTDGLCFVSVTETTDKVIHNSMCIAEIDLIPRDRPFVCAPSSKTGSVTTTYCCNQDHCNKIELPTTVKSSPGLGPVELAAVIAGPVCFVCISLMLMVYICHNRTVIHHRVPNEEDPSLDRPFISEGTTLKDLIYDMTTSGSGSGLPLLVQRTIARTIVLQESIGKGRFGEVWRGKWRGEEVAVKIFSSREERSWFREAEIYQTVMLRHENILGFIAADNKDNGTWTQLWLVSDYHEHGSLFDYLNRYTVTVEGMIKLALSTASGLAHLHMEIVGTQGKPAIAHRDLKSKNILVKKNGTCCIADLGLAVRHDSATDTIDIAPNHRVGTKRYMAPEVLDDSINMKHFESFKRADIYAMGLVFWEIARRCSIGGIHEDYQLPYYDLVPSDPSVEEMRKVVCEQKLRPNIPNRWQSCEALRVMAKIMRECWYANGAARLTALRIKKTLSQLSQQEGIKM

Chain of Tyrosine-protein kinase Fyn (Homo sapiens) (P06241 2-537 limits assumed): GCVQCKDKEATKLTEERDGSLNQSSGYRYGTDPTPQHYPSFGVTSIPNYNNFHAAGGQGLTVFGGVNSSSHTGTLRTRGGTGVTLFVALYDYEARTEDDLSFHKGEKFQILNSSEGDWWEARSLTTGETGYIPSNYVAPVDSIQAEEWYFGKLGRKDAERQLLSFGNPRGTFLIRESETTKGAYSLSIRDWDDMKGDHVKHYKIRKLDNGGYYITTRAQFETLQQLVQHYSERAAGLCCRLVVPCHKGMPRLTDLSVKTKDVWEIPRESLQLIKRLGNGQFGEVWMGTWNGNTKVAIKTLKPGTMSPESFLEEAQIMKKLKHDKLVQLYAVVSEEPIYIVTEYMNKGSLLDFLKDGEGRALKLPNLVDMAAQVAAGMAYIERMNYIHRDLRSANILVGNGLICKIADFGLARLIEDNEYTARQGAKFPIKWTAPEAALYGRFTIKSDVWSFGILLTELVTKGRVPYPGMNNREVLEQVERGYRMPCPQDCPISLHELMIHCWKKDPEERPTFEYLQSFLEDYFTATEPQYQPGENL
Chain of Tyrosine-protein kinase HCK (Homo sapiens) (P08631 2-526 limits assumed): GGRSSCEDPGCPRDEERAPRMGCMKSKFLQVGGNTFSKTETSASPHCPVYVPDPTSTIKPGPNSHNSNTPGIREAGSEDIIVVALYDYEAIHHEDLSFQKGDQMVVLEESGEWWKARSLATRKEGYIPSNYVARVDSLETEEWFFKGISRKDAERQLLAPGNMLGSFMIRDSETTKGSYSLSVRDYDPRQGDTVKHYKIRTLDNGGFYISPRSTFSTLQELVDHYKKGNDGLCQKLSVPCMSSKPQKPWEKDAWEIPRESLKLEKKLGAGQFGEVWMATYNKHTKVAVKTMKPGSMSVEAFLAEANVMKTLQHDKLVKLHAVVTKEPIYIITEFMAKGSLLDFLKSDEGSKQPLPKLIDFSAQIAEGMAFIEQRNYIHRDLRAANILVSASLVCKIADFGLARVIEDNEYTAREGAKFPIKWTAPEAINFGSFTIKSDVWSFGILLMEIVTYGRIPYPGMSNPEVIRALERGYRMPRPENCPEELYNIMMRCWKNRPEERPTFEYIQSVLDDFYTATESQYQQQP
Chain of Insulin-like growth factor 1 receptor (Homo sapiens) (P08069 31-736 limits assumed): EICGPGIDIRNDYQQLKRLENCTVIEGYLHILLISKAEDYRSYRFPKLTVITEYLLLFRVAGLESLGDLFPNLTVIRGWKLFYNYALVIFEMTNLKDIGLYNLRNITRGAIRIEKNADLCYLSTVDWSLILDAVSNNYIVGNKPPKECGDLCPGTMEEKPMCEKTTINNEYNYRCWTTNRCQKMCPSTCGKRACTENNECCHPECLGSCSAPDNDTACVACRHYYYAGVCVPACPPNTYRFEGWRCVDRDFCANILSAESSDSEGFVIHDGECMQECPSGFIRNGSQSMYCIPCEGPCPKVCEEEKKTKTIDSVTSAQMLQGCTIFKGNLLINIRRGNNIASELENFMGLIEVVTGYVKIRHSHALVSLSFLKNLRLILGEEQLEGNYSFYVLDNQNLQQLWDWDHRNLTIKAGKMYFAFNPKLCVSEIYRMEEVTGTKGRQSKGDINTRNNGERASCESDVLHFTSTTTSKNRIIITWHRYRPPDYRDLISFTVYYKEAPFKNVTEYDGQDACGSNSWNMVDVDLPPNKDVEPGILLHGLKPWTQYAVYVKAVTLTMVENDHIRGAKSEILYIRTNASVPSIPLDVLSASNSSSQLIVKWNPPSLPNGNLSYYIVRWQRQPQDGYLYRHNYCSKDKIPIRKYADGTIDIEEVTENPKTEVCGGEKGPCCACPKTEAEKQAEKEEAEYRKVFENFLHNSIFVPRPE
Chain of Insulin-like growth factor 1 receptor (Homo sapiens) (P08069 741-1367 limits assumed): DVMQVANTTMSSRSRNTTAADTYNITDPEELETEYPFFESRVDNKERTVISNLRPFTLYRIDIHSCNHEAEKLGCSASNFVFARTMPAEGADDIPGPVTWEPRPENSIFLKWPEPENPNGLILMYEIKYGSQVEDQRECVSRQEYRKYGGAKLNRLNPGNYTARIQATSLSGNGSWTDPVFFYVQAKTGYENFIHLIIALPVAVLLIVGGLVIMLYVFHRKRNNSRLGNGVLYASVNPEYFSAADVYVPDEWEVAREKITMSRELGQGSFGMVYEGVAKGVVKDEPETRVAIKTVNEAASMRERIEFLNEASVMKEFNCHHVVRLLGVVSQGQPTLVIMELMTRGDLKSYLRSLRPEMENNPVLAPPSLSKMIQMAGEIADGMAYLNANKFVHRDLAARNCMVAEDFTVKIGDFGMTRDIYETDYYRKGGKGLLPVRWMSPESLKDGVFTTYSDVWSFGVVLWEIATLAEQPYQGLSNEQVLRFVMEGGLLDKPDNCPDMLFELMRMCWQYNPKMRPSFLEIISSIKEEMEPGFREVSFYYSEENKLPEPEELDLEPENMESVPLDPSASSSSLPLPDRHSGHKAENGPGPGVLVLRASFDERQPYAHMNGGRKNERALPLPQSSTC
Chain of Casein kinase II subunit alpha' (Homo sapiens) (P19784 whole entry, looked up): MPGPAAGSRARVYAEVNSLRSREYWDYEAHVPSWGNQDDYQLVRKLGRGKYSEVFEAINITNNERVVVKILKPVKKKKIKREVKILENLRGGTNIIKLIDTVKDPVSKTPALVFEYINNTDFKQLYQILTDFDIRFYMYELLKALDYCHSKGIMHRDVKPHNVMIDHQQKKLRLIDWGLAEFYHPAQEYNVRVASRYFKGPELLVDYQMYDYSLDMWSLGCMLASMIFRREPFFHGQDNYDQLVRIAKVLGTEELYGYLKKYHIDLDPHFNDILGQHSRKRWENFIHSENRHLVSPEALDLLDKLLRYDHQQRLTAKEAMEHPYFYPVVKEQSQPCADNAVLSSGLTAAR
Chain of Ephrin type-A receptor 7 (Homo sapiens) (Q15375 28-998 limits assumed): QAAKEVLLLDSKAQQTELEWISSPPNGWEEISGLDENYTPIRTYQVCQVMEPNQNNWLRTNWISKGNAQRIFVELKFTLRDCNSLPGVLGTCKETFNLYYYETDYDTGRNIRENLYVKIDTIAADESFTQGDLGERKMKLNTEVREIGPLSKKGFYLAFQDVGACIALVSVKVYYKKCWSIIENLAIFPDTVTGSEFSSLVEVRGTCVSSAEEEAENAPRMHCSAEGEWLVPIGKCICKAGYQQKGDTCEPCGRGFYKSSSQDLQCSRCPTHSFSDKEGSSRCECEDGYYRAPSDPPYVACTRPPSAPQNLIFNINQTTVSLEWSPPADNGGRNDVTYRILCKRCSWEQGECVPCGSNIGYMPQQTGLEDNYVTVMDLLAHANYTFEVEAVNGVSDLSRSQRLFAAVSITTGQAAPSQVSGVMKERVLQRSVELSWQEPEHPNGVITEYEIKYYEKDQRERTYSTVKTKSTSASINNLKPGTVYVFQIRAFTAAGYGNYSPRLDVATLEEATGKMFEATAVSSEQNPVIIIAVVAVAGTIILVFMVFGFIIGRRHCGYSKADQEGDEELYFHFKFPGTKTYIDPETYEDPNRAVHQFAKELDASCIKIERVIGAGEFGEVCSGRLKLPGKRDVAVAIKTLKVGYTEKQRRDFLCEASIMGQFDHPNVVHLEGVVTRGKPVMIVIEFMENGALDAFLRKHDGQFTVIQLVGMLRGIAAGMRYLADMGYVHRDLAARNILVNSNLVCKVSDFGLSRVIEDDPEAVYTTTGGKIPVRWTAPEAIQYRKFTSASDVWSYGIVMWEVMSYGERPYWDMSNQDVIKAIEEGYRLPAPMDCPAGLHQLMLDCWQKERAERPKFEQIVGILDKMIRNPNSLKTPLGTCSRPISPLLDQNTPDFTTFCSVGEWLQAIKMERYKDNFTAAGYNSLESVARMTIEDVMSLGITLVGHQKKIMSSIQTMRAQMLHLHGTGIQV
Chain of Serine/threonine-protein kinase Nek7 (Homo sapiens) (Q8TDX7 whole entry, looked up): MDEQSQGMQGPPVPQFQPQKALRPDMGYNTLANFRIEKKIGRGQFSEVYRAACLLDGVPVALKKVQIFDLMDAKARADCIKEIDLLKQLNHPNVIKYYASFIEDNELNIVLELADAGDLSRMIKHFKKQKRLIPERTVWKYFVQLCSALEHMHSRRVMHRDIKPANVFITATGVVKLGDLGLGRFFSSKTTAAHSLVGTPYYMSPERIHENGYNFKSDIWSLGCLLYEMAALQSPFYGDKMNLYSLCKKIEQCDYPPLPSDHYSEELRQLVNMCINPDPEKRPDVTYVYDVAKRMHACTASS
Chain of 5'-AMP-activated protein kinase catalytic subunit alpha-1 (Homo sapiens) (Q13131 whole entry, looked up): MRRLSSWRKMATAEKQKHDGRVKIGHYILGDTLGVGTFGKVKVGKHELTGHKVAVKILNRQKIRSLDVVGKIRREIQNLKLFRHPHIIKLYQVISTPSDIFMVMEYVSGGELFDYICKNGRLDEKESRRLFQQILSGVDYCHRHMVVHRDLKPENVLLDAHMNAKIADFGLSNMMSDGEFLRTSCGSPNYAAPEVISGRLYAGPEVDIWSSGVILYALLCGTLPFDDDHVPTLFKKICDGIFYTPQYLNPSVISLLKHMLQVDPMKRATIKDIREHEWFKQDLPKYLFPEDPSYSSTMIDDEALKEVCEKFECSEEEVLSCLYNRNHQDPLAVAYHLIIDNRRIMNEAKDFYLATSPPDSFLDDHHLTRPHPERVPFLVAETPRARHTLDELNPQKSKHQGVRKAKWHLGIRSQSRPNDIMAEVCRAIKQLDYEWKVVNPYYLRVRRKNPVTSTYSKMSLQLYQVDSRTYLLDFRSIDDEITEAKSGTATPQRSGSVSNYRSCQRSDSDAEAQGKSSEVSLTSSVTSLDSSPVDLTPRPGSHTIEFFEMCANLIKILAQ
Chain of Casein kinase I isoform gamma-3 (Homo sapiens) (Q9Y6M4 whole entry, looked up, canonical isoform): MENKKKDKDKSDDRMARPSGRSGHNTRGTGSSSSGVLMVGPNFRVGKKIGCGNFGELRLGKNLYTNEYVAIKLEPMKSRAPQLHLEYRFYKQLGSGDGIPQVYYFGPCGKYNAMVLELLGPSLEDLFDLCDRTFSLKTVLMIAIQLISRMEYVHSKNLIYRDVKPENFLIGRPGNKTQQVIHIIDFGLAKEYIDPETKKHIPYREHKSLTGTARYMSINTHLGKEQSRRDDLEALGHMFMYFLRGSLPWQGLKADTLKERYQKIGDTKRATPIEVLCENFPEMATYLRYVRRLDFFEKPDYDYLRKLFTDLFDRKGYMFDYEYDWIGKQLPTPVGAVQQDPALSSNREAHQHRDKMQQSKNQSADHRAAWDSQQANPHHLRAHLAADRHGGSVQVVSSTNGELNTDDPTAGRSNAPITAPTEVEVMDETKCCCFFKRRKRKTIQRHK

Compound	residual activity [1]	residual activity [2]	residual activity [3]	residual activity [4]	residual activity [5]	residual activity [6]	residual activity [7]	residual activity [8]	residual activity [9]	residual activity [10]	residual activity [11]	residual activity [12]	residual activity [13]
COc1cc2c(Oc3ccc(-c4nc5ccccc5s4)cc3)ncnc2cc1OCCCN1CCN(C)CC1	83%	93%	101%	75%	98%	24%	116%	100%	93%	103%	94%	83%	102%
COc1cc2c(Oc3ccc(-c4nc5ccccc5s4)cc3)ncnc2cc1OCCCN1CCCC1	88%	116%	105%	57%	97%	25%	108%	98%	98%	95%	101%	95%	90%
COc1cc2c(Oc3ccc(-c4nc5ccccc5s4)cc3F)ncnc2cc1OCCCN1CCN(C)CC1	92%	99%	98%	68%	116%	15%	49%	46%	80%	96%	86%	97%	96%
